# In ChEMBL document CHEMBL5678810:
# Experiments:
# [1] = molecular target: Mitogen-activated protein kinase kinase kinase 5 (Homo sapiens) (UniProt Q99683); test: Inhibition of T7 bacteriophage fused human ASK1 at 10 uM by KINOMEscan analysis relative to control
# [2] = system: Epidermal growth factor receptor (Homo sapiens), P00533 [L858R]; test: Inhibition of T7 bacteriophage fused human EGFR L858R mutant at 10 uM by KINOMEscan analysis relative to control; values are per cent of control
# [3] = molecular target: Myosin light chain kinase family member 4 (Homo sapiens) (UniProt Q86YV6); test: Inhibition of T7 bacteriophage fused human MYLK4 at 10 uM by KINOMEscan analysis relative to control; values are per cent of control
# [4] = molecular target: Activin receptor type-1-like (Homo sapiens) (UniProt P37023); test: Inhibition of T7 bacteriophage fused human ACVRL1 at 10 uM by KINOMEscan analysis relative to control
# [5] = molecular target: Mitogen-activated protein kinase 4 (Homo sapiens) (UniProt P31152); test: Inhibition of T7 bacteriophage fused human ERK4 at 10 uM by KINOMEscan analysis relative to control
# [6] = molecular target: Hepatocyte growth factor receptor (Homo sapiens) (UniProt P08581); test: Inhibition of T7 bacteriophage fused human MET at 10 uM by KINOMEscan analysis relative to control
# [7] = molecular target: Glycogen synthase kinase-3 alpha (Homo sapiens) (UniProt P49840); test: Inhibition of T7 bacteriophage fused human GSK3A at 10 uM by KINOMEscan analysis relative to control
# [8] = system: Epidermal growth factor receptor (Homo sapiens), P00533 [T790M]; test: Inhibition of T7 bacteriophage fused human EGFR T790M mutant at 10 uM by KINOMEscan analysis relative to control; values are per cent of control
# [9] = molecular target: Tyrosine-protein kinase Fes/Fps (Homo sapiens) (UniProt P07332); test: Inhibition of T7 bacteriophage fused human FES at 10 uM by KINOMEscan analysis relative to control; values are per cent of control
# [10] = molecular target: Serine/threonine-protein kinase 38-like (Homo sapiens) (UniProt Q9Y2H1); test: Inhibition of T7 bacteriophage fused human NDR2 at 10 uM by KINOMEscan analysis relative to control
# [11] = molecular target: Ribosomal protein S6 kinase alpha-5 (Homo sapiens) (UniProt O75582); test: Inhibition of T7 bacteriophage fused human C-terminal RPS6KA5 Kinase domain-2 at 10 uM by KINOMEscan analysis relative to control
# [12] = molecular target: Interleukin-1 receptor-associated kinase 1 (Homo sapiens) (UniProt P51617); test: Inhibition of T7 bacteriophage fused human IRAK1 at 10 uM by KINOMEscan analysis relative to control
# [13] = molecular target: Dual specificity mitogen-activated protein kinase kinase 7 (Homo sapiens) (UniProt O14733); test: Inhibition of T7 bacteriophage fused human MKK7 at 10 uM by KINOMEscan analysis relative to control
# [14] = molecular target: Dual specificity tyrosine-phosphorylation-regulated kinase 2 (Homo sapiens) (UniProt Q92630); test: Inhibition of T7 bacteriophage fused human DYRK2 at 10 uM by KINOMEscan analysis relative to control; values are per cent of control
# Dual specificity tyrosine-phosphorylation-regulated kinase 2 (Homo sapiens), sequence (Q92630 whole entry, the tested form may be a part): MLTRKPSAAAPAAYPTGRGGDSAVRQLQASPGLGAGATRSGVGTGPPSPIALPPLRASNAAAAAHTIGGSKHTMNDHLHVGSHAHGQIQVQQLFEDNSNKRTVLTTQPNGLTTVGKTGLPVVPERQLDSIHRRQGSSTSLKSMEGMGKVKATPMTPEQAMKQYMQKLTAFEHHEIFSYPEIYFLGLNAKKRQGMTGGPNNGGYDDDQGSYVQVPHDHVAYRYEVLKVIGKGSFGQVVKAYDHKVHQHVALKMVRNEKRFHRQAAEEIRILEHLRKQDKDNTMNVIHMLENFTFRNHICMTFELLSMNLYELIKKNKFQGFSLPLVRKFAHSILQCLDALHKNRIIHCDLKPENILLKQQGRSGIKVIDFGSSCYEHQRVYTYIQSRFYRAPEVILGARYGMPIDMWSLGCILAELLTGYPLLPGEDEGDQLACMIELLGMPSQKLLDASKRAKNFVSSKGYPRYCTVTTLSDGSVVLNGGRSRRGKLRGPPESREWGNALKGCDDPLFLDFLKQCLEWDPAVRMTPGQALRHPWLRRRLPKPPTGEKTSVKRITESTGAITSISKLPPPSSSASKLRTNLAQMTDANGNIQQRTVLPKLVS
# [15] = molecular target: Myosin light chain kinase (Homo sapiens) (UniProt Q32MK0); test: Inhibition of T7 bacteriophage fused human MLCK at 10 uM by KINOMEscan analysis relative to control
# Myosin light chain kinase (Homo sapiens), sequence (Q32MK0 whole entry, the tested form may be a part, canonical isoform): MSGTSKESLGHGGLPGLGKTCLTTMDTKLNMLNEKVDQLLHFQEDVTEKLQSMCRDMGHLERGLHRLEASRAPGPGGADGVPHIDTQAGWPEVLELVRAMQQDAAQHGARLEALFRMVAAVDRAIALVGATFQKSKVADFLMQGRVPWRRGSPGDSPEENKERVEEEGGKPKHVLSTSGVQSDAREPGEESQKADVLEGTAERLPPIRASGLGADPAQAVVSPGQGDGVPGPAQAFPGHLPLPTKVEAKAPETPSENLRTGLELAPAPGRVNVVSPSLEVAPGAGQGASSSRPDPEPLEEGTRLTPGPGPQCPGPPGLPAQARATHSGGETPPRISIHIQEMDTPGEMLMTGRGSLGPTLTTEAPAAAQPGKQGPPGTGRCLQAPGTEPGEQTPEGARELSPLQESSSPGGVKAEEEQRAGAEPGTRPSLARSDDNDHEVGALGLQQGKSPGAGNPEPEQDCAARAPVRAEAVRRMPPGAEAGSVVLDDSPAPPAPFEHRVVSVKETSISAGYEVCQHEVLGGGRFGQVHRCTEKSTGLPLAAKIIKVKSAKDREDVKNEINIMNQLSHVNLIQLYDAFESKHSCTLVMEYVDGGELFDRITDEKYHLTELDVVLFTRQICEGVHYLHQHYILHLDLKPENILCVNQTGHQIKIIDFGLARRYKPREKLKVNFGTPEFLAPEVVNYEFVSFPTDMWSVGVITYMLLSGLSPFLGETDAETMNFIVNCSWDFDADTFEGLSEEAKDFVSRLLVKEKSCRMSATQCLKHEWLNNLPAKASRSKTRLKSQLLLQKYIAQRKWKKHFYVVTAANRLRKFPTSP
# [16] = system: Phosphatidylinositol 4,5-bisphosphate 3-kinase catalytic subunit alpha isoform (Homo sapiens), P42336 [H1047Y]; test: Inhibition of T7 bacteriophage fused human PIK3CA H1047Y mutant at 10 uM by KINOMEscan analysis relative to control
# Phosphatidylinositol 4,5-bisphosphate 3-kinase catalytic subunit alpha isoform (Homo sapiens), P42336 [H1047Y], sequence (P42336 whole entry H1047Y, the tested form may be a part, canonical isoform): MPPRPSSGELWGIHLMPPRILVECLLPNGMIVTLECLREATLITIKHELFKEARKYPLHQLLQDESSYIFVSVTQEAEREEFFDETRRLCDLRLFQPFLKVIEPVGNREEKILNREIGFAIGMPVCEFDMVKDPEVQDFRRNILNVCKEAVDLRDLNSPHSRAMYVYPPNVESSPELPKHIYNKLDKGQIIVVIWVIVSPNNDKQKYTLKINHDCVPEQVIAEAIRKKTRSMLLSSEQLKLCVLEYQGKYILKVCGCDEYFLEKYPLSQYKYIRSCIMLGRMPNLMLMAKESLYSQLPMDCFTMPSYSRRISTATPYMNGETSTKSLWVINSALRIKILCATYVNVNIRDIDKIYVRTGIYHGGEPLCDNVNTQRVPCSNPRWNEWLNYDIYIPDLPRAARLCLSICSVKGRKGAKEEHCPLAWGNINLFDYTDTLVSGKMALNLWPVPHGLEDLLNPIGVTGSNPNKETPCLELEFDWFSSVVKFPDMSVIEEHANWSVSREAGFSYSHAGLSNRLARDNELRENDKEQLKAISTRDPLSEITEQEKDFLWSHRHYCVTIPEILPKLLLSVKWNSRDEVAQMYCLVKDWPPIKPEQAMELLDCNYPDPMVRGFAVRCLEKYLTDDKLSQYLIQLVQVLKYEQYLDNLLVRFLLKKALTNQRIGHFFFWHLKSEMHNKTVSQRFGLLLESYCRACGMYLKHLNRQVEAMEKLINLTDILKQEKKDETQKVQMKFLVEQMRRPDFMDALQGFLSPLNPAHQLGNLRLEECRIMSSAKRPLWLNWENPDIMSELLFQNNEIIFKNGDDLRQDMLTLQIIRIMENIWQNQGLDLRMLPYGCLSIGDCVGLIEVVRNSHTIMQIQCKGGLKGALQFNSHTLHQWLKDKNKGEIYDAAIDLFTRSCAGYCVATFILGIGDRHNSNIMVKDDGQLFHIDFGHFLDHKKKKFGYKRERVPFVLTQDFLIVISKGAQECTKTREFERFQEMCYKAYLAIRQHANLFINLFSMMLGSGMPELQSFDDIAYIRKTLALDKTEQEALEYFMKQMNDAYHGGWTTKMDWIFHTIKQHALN
# [17] = molecular target: Phosphatidylinositol 4,5-bisphosphate 3-kinase catalytic subunit alpha isoform (Homo sapiens) (UniProt P42336); test: Inhibition of T7 bacteriophage fused human PIK3CA at 10 uM by KINOMEscan analysis relative to control
# Phosphatidylinositol 4,5-bisphosphate 3-kinase catalytic subunit alpha isoform (Homo sapiens), sequence (P42336 whole entry, the tested form may be a part, canonical isoform): as the sequence (P42336 whole entry H1047Y, the tested form may be a part, canonical isoform) above, with Y1047H counted along it
# [18] = molecular target: Death-associated protein kinase 3 (Homo sapiens) (UniProt O43293); test: Inhibition of T7 bacteriophage fused human DAPK3 at 10 uM by KINOMEscan analysis relative to control; values are per cent of control
# [19] = molecular target: Serine/threonine-protein kinase 10 (Homo sapiens) (UniProt O94804); test: Inhibition of T7 bacteriophage fused human LOK at 10 uM by KINOMEscan analysis relative to control
# [20] = molecular target: Phosphatidylinositol 4-phosphate 3-kinase C2 domain-containing subunit beta (Homo sapiens) (UniProt O00750); test: Inhibition of T7 bacteriophage fused human PIK3C2B at 10 uM by KINOMEscan analysis relative to control
# [21] = molecular target: Tyrosine-protein kinase JAK1 (Homo sapiens) (UniProt P23458); test: Inhibition of T7 bacteriophage fused human JAK1 JH1catalytic domain at 10 uM by KINOMEscan analysis relative to control
# [22] = molecular target: Dual specificity mitogen-activated protein kinase kinase 6 (Homo sapiens) (UniProt P52564); test: Inhibition of T7 bacteriophage fused human MEK6 at 10 uM by KINOMEscan analysis relative to control; values are per cent of control
# [23] = molecular target: Calcium/calmodulin-dependent protein kinase kinase 1 (Homo sapiens) (UniProt Q8N5S9); test: Inhibition of T7 bacteriophage fused human CAMKK1 at 10 uM by KINOMEscan analysis relative to control
# [24] = molecular target: Rhodopsin kinase GRK1 (Homo sapiens) (UniProt Q15835); test: Inhibition of T7 bacteriophage fused human GRK1 at 10 uM by KINOMEscan analysis relative to control; values are per cent of control
# [25] = molecular target: Ribosomal protein S6 kinase alpha-2 (Homo sapiens) (UniProt Q15349); test: Inhibition of T7 bacteriophage fused human C-terminal RSK3 Kinase domain-2 at 10 uM by KINOMEscan analysis relative to control
# [26] = molecular target: Serine/threonine-protein kinase pim-2 (Homo sapiens) (UniProt Q9P1W9); test: Inhibition of T7 bacteriophage fused human PIM2 at 10 uM by KINOMEscan analysis relative to control
# [27] = molecular target: Serine/threonine-protein kinase 24 (Homo sapiens) (UniProt Q9Y6E0); test: Inhibition of T7 bacteriophage fused human MST3 at 10 uM by KINOMEscan analysis relative to control; values are per cent of control
# [28] = molecular target: Mitogen-activated protein kinase kinase kinase kinase 2 (Homo sapiens) (UniProt Q12851); test: Inhibition of T7 bacteriophage fused human MAP4K2 at 10 uM by KINOMEscan analysis relative to control
# [29] = molecular target: Serine/threonine-protein kinase ULK2 (Homo sapiens) (UniProt Q8IYT8); test: Inhibition of T7 bacteriophage fused human ULK2 at 10 uM by KINOMEscan analysis relative to control
# [30] = molecular target: Rho-associated protein kinase 2 (Homo sapiens) (UniProt O75116); test: Inhibition of T7 bacteriophage fused human ROCK2 at 10 uM by KINOMEscan analysis relative to control
# Mitogen-activated protein kinase kinase kinase 5 (Homo sapiens), sequence (Q99683 whole entry, the tested form may be a part): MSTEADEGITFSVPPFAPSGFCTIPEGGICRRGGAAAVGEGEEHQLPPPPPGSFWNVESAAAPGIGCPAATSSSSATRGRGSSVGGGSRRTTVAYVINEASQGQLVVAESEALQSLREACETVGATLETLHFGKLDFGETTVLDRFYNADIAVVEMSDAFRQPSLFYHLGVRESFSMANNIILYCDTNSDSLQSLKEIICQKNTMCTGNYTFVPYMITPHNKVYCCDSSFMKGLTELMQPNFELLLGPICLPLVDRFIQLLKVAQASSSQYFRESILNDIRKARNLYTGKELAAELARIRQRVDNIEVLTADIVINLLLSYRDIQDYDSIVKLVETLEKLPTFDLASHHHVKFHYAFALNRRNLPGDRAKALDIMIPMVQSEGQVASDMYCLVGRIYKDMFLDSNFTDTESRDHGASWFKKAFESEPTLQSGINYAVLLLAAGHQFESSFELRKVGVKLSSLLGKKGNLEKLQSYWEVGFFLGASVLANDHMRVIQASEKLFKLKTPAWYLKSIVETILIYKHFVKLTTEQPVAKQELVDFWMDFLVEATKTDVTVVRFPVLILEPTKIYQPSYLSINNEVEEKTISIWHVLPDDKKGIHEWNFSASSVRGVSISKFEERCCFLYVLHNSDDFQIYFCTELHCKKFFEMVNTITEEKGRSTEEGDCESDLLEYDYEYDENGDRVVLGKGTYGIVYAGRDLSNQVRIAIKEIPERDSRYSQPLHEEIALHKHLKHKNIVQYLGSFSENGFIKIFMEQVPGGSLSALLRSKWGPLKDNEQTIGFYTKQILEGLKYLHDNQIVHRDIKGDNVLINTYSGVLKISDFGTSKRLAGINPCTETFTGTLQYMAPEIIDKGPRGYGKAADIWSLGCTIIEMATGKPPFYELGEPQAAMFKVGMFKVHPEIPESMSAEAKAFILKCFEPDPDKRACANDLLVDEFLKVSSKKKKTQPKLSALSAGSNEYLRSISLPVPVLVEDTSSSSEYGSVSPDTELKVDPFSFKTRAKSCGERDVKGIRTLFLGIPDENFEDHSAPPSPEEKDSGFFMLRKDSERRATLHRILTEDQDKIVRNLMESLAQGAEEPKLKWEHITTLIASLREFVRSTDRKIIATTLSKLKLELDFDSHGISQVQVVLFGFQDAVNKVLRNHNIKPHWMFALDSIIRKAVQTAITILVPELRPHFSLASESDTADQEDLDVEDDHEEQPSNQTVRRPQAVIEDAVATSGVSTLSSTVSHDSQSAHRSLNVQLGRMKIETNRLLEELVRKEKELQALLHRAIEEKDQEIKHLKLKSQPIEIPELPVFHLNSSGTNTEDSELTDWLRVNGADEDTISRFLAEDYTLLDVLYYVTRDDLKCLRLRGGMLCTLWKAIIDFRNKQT
smiles,measurement,setting,value
COc1cc(N2CCC(N3CCN(C)CC3)CC2)ccc1Nc1ncc2c(n1)N(C)c1ccccc1C(=O)N2C,inhibition,[1],100%
same,residual activity,[2],79%
same,residual activity,[3],80%
same,inhibition,[4],100%
same,inhibition,[5],100%
same,inhibition,[6],100%
same,inhibition,[7],100%
same,residual activity,[8],88%
same,residual activity,[9],84%
same,inhibition,[10],100%
same,inhibition,[11],92%
same,inhibition,[12],100%
same,inhibition,[13],100%
same,residual activity,[14],76%
same,inhibition,[15],100%
same,inhibition,[16],71%
same,inhibition,[17],74%
same,residual activity,[18],67%
same,inhibition,[19],100%
same,inhibition,[20],100%
same,inhibition,[21],100%
same,residual activity,[22],83%
same,inhibition,[23],73%
same,residual activity,[24],91%
same,inhibition,[25],7.5%
same,inhibition,[26],100%
same,residual activity,[27],87%
same,inhibition,[28],100%
same,inhibition,[29],67%
same,inhibition,[30],87%
